The supplement of paper PMC10627819

Key:
S. pneumoniae D39V [1] = assay: Bliss interaction score (quartile over a dose matrix) (fitness difference); higher = more antagonism (negative = synergy)
Summary of the method: (§1)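 Each plate was normalised to the robust mean of its own no-drug wells, using OD595 at entry into stationary phase, with values capped at 1. This normalised growth is the fitness value. The Bliss score is the difference between observed and product-expected fitness, with single-drug fitness inferred from the combination data and quartiles taken over technical, biological and donor/recipient replicates.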

B. subtilis 168 = assay: as above
Summary of the method: as §1

S. aureus DSM 20231 = assay: as above
Summary of the method: as §1

S. aureus Newman = assay: as above
Summary of the method: as §1

S. pneumoniae D39V [2] = assay: fitness (endpoint OD595 vs no drug) (fraction); higher = more growth
Summary of the method: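 With the first reading as background, OD595 was measured every 30 min for 14 h in 384-well plates kept at 37 °C and inoculated at OD595 0.01. TSB, LB Lennox or CY was the medium. Fitness is the optical density at the transition into stationary phase divided by the robust mean of no-drug control wells, with a cap of 1.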
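For Bliss interaction score (quartile over a dose matrix) in this document: first quartile when negative (synergy) and third quartile when positive (antagonism).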

C[C@H]1c2cccc(O)c2C(=O)C2=C(O)[C@]3(O)C(=O)C(C(N)=O)=C(O)[C@@H](N(C)C)[C@@H]3[C@@H](O)[C@@H]21 [Doxycycline] + CN[C@H](CC(C)C)C(=O)N[C@H]1C(=O)N[C@@H](CC(N)=O)C(=O)N[C@H]2C(=O)N[C@H]3C(=O)N[C@H](C(=O)N[C@H](C(=O)O)c4cc(O)cc(O)c4-c4cc3ccc4O)[C@H](O)c3ccc(c(Cl)c3)Oc3cc2cc(c3O[C@@H]2O[C@H](CO)[C@@H](O)[C@H](O)[C@H]2O[C@H]2C[C@](C)(N)[C@H](O)[C@H](C)O2)Oc2ccc(cc2Cl)[C@H]1O [Vancomycin]
Details | Bliss interaction score
B. subtilis 168 | 0.0535
S. aureus DSM 20231 | 0.0785
S. aureus Newman | 0.0371
S. pneumoniae D39V [1] | 0.101

fitness, S. pneumoniae D39V [2], one replicate
Details | first compound 0.003875 µg/mL | first compound 0.00775 µg/mL | first compound 0.031 µg/mL | first compound 0.062 µg/mL
partner 0.125 µg/mL | 0.882 | 0.989 | – | –
partner 0.25 µg/mL | 0.29 | 0.571 | 0.753 | 0.629
partner 0.5 µg/mL | 0.0216 | 0.0253 | 0.128 | 0.0893

fitness, S. pneumoniae D39V [2]
Details | partner 0.03125 µg/mL | partner 0.0625 µg/mL | partner 0.125 µg/mL | partner 0.25 µg/mL | partner 0.5 µg/mL
first compound 0.0155 µg/mL | 0.903 | 0.876 | 0.913 | 0.802 | 0.105
first compound 0.031 µg/mL | 0.838 | 0.79 | 0.767 | – | –
first compound 0.062 µg/mL | 0.84 | 0.783 | – | – | –

COc1cccc2c1C(=O)c1c(O)c3c(c(O)c1C2=O)C[C@@](O)(C(=O)CO)C[C@@H]3O[C@H]1C[C@H](N)[C@H](O)[C@H](C)O1 [Doxorubicin] + CO[C@H]1/C=C/O[C@@]2(C)Oc3c(C)c(O)c4c(O)c(c(/C=N/N5CCN(C)CC5)c(O)c4c3C2=O)NC(=O)/C(C)=C\C=C\[C@H](C)[C@H](O)[C@@H](C)[C@@H](O)[C@@H](C)[C@H](OC(C)=O)[C@@H]1C [Rifampicin]
Details | Bliss interaction score
B. subtilis 168 | 0.0845
S. aureus DSM 20231 | -0.0908
S. aureus Newman | -0.029
S. pneumoniae D39V [1] | -0.058

fitness, S. pneumoniae D39V [2]
Details | first compound 0.25 µg/mL | first compound 0.5 µg/mL | first compound 1 µg/mL
partner 0.025 µg/mL | 0.985 | 0.991 | 0.866
partner 0.05 µg/mL | – | 0.94 | –
partner 0.1 µg/mL | 0.323 | 0.397 | 0.318

S. pneumoniae D39V [2], partner 0.2 µg/mL, one replicate
Details | fitness
first compound 0.25 µg/mL | 0
first compound 0.5 µg/mL | 0
first compound 1 µg/mL | 0

C[C@H]1c2cccc(O)c2C(=O)C2=C(O)[C@]3(O)C(=O)C(C(N)=O)=C(O)[C@@H](N(C)C)[C@@H]3[C@@H](O)[C@@H]21 [Doxycycline] + O=C1CN(/N=C/c2ccc([N+](=O)[O-])o2)C(=O)N1 [Nitrofurantoin]
Details | Bliss interaction score
B. subtilis 168 | 0.0854
S. aureus DSM 20231 | -0.0256
S. aureus Newman | -0.0329
S. pneumoniae D39V [1] | 0.0703

fitness, S. pneumoniae D39V [2], one replicate
Details | first compound 0.003875 µg/mL | first compound 0.00775 µg/mL | first compound 0.0155 µg/mL | first compound 0.031 µg/mL | first compound 0.062 µg/mL
partner 2 µg/mL | ≥ 1 | 0.943 | – | 0.77 | 0.68
partner 4 µg/mL | 0.993 | 0.953 | – | 0.809 | 0.681
partner 5.14 µg/mL | – | – | 0.875 | 0.894 | 0.828
partner 8 µg/mL | 0.766 | 0.824 | – | 0.8 | 0.741

fitness, S. pneumoniae D39V [2]
Details | partner 1.285 µg/mL | partner 2 µg/mL | partner 2.57 µg/mL | partner 4 µg/mL | partner 8 µg/mL
first compound 0.0155 µg/mL | 0.899 | 0.9 | 0.944 | 0.898 | 0.877
first compound 0.031 µg/mL | 0.896 | – | 0.92 | – | –
first compound 0.062 µg/mL | 0.837 | – | 0.869 | – | –
